Source: US9073853B2, “Cycloalkane carboxylic acid derivatives as CXCR3 receptor antagonists” (Sanofi, priority 2011, dated 2015)
Counter-ions that a name gives are not always drawn.

Target: human CXCR3-A receptor (Homo sapiens (Human), UniProt P49682)
Experiment: 125I-CXCL10 competition radioligand binding assay
Settings: displacement of 125I-CXCL10 from membranes of CHO cells expressing human recombinant CXCR3-A
Method in brief: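 Membranes from a recombinant cell line expressing human CXCR3-A (10-20 μg protein) were incubated with 125I-CXCL10 and test compound for 60 min at 25° C, then filtered onto PEI-soaked GF/B filters and gamma-counted. IC50 and Hill slope came from four-parameter nonlinear fitting of competition curves.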

Chain of human CXCR3-A receptor (P49682 whole entry): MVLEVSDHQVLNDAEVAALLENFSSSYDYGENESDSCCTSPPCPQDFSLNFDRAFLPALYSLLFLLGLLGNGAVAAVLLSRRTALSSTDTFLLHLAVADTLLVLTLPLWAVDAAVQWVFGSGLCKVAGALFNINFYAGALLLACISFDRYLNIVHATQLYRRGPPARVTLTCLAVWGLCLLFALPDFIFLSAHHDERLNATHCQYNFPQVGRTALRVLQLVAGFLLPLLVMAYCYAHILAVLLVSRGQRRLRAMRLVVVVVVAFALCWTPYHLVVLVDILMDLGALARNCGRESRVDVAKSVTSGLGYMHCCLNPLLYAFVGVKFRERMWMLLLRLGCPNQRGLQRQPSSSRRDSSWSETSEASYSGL

| Compound | IC50 [nM] |
| --- | --- |
| COc1cc(CN(C[C@H]2CC[C@H](C(=O)O)CC2)C2CCc3cc(Cl)c(F)cc32)ccc1OCCN1C(=O)CCC1=O (stereo partly drawn) [Example 98, trans-4-[((5-Chloro-6-fluoro-indan-1-yl)-{4-[2-(2,5-dioxo-pyrrolidin-1-yl)-ethoxy]-3-methoxy-benzyl}-amino)-methyl]-cyclohexanecarboxylic acid] | 155 |
| COc1cc(CN(C[C@H]2CC[C@H](C(=O)O)CC2)[C@H]2CCc3c2ccc(Cl)c3Cl)ccc1OCCN1C(=O)CCC1=O [Example 14, trans-4-[(((S)-4,5-Dichloro-indan-1-yl)-{4-[2-(2,5-dioxo-pyrrolidin-1-yl)-ethoxy]-3-methoxy-benzyl}-amino)-methyl]-cyclohexanecarboxylic acid hydrochloride] | 25 |
| C[C@@H](c1ccc(Cl)cc1)N(Cc1ccc(OCCN2C(=O)CCC2=O)cc1)C[C@H]1CC[C@H](C(=O)O)CC1 [Example 79, trans-4-[([(S)-1-(4-Chloro-phenyl)-ethyl]-{4-[2-(2,5-dioxo-pyrrolidin-1-yl)-ethoxy]-benzyl}-amino)-methyl]-cyclohexanecarboxylic acid] | 154 |
| COc1cc(CN(C[C@H]2CC[C@H](C(=O)O)CC2)C(C)c2ccc3c(c2)CCO3)ccc1C1CC1CN1C(=O)CCC1=O (stereo partly drawn) [Example 49, trans-4-[([1-(2,3-Dihydro-benzofuran-5-yl)-ethyl]-{4-[2-(2,5-dioxo-pyrrolidin-1-ylmethyl)-cyclopropyl]-3-methoxy-benzyl}-amino)-methyl]-cyclohexanecarboxylic acid] | 746 |
| C[C@@H](c1ccc(Cl)cc1)N(Cc1ccc(OCCN2C(=O)CCC2=O)c(CO)c1)C[C@H]1CC[C@H](C(=O)O)CC1 [Example 85, trans-4-[([(S)-1-(4-Chloro-phenyl)-ethyl]-{4-[2-(2,5-dioxo-pyrrolidin-1-yl)-ethoxy]-3-hydroxymethyl-benzyl}-amino)-methyl]-cyclohexanecarboxylic acid] | 71 |
| CCC(c1ccc(Cl)cc1)N(Cc1ccc(OCCn2c(=O)ccn(C)c2=O)c(C)c1)C[C@H]1CC[C@H](C(=O)O)CC1 (stereo partly drawn) [Example 64, trans-4-[([1-(4-Chloro-phenyl)-propyl]-{3-methyl-4-[2-(3-methyl-2,6-dioxo-3,6-dihydro-2H-pyrimidin-1-yl)-ethoxy]-benzyl}-amino)-methyl]-cyclohexanecarboxylic acid] | 487 |
| COc1cc(CN(C[C@H]2CC[C@H](C(=O)O)CC2)C2CCc3c2ccc(F)c3Cl)ccc1OCCN1C(=O)CCC1=O (stereo partly drawn) [Example 93, trans-4-[((4-Chloro-5-fluoro-indan-1-yl)-{4-[2-(2,5-dioxo-pyrrolidin-1-yl)-ethoxy]-3-methoxy-benzyl}-amino)-methyl]-cyclohexanecarboxylic acid] | 84 |
| CCC(c1ccc(Cl)cc1)N(Cc1ccc(OCCN2C(=O)CN(C)C2=O)c(C)c1)C[C@@H]1[C@@H](C(=O)O)C1(C)C (stereo partly drawn) [Example 115, (1R,3R)-3-[([1-(4-Chloro-phenyl)-propyl]-{3-methyl-4-[2-(3-methyl-2,5-dioxo-imidazolidin-1-yl)-ethoxy]-benzyl}-amino)-methyl]-2,2-dimethyl-cyclopropanecarboxylic acid] | 244 |
| CCc1cc(CN(C[C@H]2CC[C@H](C(=O)O)CC2)[C@H]2CCc3c2ccc(Cl)c3F)ccc1OCCN1C(=O)CCC1=O [Example 149, trans-4-[(((S)-5-Chloro-4-fluoro-indan-1-yl)-{4-[2-(2,5-dioxo-pyrrolidin-1-yl)-ethoxy]-3-ethyl-benzyl}-amino)-methyl]-cyclohexanecarboxylic acid] | 165 |
| COc1cc(CN(C2CC(C(=O)O)C2)C2CCc3cc(Cl)ccc32)ccc1OCCN1C(=O)CCC1=O (stereo not shown) [Example 127, 3-((5-Chloro-indan-1-yl)-{4-[2-(2,5-dioxo-pyrrolidin-1-yl)-ethoxy]-3-methoxy-benzyl}-amino)-cyclobutanecarboxylic acid] | 1090 |
| Cc1cc(CN(C[C@H]2CC[C@H](C(=O)O)CC2)[C@H]2CCc3cc(Cl)ccc32)ccc1OCCN1C(=O)CCC1=O [Example 30, trans-4-[(((S)-5-Chloro-indan-1-yl)-{4-[2-(2,5-dioxo-pyrrolidin-1-yl)-ethoxy]-3-methyl-benzyl}-amino)-methyl]-cyclohexanecarboxylic acid] | 53 |
| CCOC(=O)[C@H]1CC[C@H](CN(Cc2ccc(OCCN3C(=O)CCC3=O)c(OC)c2)C(C)c2ccc3c(c2)CCO3)CC1 (relative stereo) [Example 1.1, trans-4-[([1-(2,3-Dihydro-benzofuran-5-yl)-ethyl]-{4-[2-(2,5-dioxo-pyrrolidin-1-yl)-ethoxy]-3-methoxy-benzyl}-amino)-methyl]-cyclohexanecarboxylic acid ethyl ester] | 177 |
| Cc1cc(CN(C[C@H]2CC[C@H](C(=O)O)CC2)C(C)c2ccc3c(c2)CCO3)ccc1OCCn1c(=O)ccn(C)c1=O (stereo partly drawn) [Example 60, trans-4-[([1-(2,3-Dihydro-benzofuran-5-yl)-ethyl]-{3-methyl-4-[2-(3-methyl-2,6-dioxo-3,6-dihydro-2H-pyrimidin-1-yl)-ethoxy]-benzyl}-amino)-methyl]-cyclohexanecarboxylic acid] | 345 |
| COc1cc(CN(C[C@H]2CC[C@H](C(=O)O)CC2)C2CCc3cc(Cl)ccc32)ccc1CCCN1C(=O)CCC1=O (stereo in doubt) [Example 45, trans-4-[(((R)-5-Chloro-indan-1-yl)-{4-[3-(2,5-dioxo-pyrrolidin-1-yl)-propyl]-3-methoxy-benzyl}-amino)-methyl]-cyclohexanecarboxylic acid] | 160 |

Other lines, results leading:

| IC50 [nM] | Compound |
| --- | --- |
| 3810 | Cc1cc(CN(C[C@H]2CC[C@@H](C(=O)O)CC2)[C@@H](C)c2ccc(Cl)cc2)ccc1OCCN1C(=O)CCC1=O [Example 8, cis-4-[([(S)-1-(4-Chloro-phenyl)-ethyl]-{4-[2-(2,5-dioxo-pyrrolidin-1-yl)-ethoxy]-3-methyl-benzyl}-amino)-methyl]-cyclohexanecarboxylic acid] |
| 70 | COc1cc(CN(C[C@H]2CC[C@H](C(=O)O)CC2)C(C)c2ccc(C(F)(F)F)cc2)ccc1OCCN1C(=O)CCC1=O (stereo partly drawn) [Example 154, trans-4-({{4-[2-(2,5-Dioxo-pyrrolidin-1-yl)-ethoxy]-3-methoxy-benzyl}-[1-(4-trifluoromethyl-phenyl)-ethyl]-amino}-methyl)-cyclohexanecarboxylic acid] |
| 62 | CCC(c1ccc(Cl)cc1)N(Cc1ccc(OCCN2C(=O)CCC2=O)c(OC)c1)C[C@H]1CC[C@H](C(=O)O)CC1 (stereo partly drawn) [Example 63, trans-4-[([1-(4-Chloro-phenyl)-propyl]-{4-[2-(2,5-dioxo-pyrrolidin-1-yl)-ethoxy]-3-methoxy-benzyl}-amino)-methyl]-cyclohexanecarboxylic acid] |
| 46 | COc1cc(CN(C[C@H]2CC[C@H](C(=O)O)CC2)C(C)c2ccc(Cl)c(F)c2)ccc1OCCN1C(=O)CCC1=O (stereo partly drawn) [Example 82, trans-4-[([1-(4-Chloro-3-fluoro-phenyl)-ethyl]-{4-[2-(2,5-dioxo-pyrrolidin-1-yl)-ethoxy]-3-methoxy-benzyl}-amino)-methyl]-cyclohexanecarboxylic acid] |
| 15 | COc1cc(CN(C[C@@H]2CC[C@@H](C(=O)O)C2)[C@H](C)c2ccc3c(c2)CCO3)ccc1OCCN1C(=O)CCC1=O [Example 104, (1R,3R)-3-[([(R)-1-(2,3-Dihydro-benzofuran-5-yl)-ethyl]-{4-[2-(2,5-dioxo-pyrrolidin-1-yl)-ethoxy]-3-methoxy-benzyl}-amino)-methyl]-cyclopentanecarboxylic acid] |
| 149 | COc1cc(CN([C@H]2C[C@@H](C(=O)O)C2)[C@H](C)c2ccc(Cl)c(Cl)c2)ccc1OCCN1C(=O)CCC1=O [Example 152, cis-3-([(R)-1-(3,4-Dichloro-phenyl)-ethyl]-{4-[2-(2,5-dioxo-pyrrolidin-1-yl)-ethoxy]-3-methoxy-benzyl}-amino)-cyclobutanecarboxylic acid] |
| 53 | COc1cc(CN(C[C@@H]2CC[C@@H](C(=O)O)C2)[C@@H](C)c2ccc3c(c2)CCO3)ccc1OCCN1C(=O)CCC1=O [Example 105, (1R,3R)-3-[([(S)-1-(2,3-Dihydro-benzofuran-5-yl)-ethyl]-{4-[2-(2,5-dioxo-pyrrolidin-1-yl)-ethoxy]-3-methoxy-benzyl}-amino)-methyl]-cyclopentanecarboxylic acid] |
| 1810 | COc1cc(CN(C[C@H]2CC[C@@H](C(=O)O)C2)[C@@H](C)c2ccc(Cl)cc2)ccc1OCCN1C(=O)CCC1=O [Example 101, (1R,3S)-3-[([(S)-1-(4-Chloro-phenyl)-ethyl]-{4-[2-(2,5-dioxo-pyrrolidin-1-yl)-ethoxy]-3-methoxy-benzyl}-amino)-methyl]-cyclopentanecarboxylic acid] |
| 35 | CC(c1ccc2c(c1)CCO2)N(Cc1ccc(OCCN2C(=O)CCC2=O)c(Cl)c1)C[C@H]1CC[C@H](C(=O)O)CC1 (stereo partly drawn) [Example 16, trans-4-({{3-Chloro-4-[2-(2,5-dioxo-pyrrolidin-1-yl)-ethoxy]-benzyl}-[1-(2,3-dihydro-benzofuran-5-yl)-ethyl]-amino}-methyl)-cyclohexanecarboxylic acid] |
| 182 | COc1cc(CN(C[C@H]2CC[C@H](C(=O)O)CC2)C(C)c2ccc(Cl)c(Cl)c2)ccc1OCCN1C(=O)CCC1=O (stereo partly drawn) [Example 77, trans-4-[([1-(3,4-Dichloro-phenyl)-ethyl]-{4-[2-(2,5-dioxo-pyrrolidin-1-yl)-ethoxy]-3-methoxy-benzyl}-amino)-methyl]-cyclohexanecarboxylic acid] |

Same assay, conditions: read-out: % at 10 μM; at 10 μM; displacement of 125I-CXCL10

| inhibition at 10 µM [%] | Compound |
| --- | --- |
| 24 | Cc1cc(CN(C(C)c2ccc(Cl)c(F)c2)[C@H]2C[C@H](C(=O)O)C2)ccc1OCCN1C(=O)CCC1=O (stereo partly drawn) [Example 124, trans-3-([1-(4-Chloro-3-fluoro-phenyl)-ethyl]-{4-[2-(2,5-dioxo-pyrrolidin-1-yl)-ethoxy]-3-methyl-benzyl}-amino)-cyclobutanecarboxylic acid] |
